Like-named read-outs stand apart in the source and are kept apart here.
Biological target: human muscarinic acetylcholine M3 receptor (M3-ACh) (Homo sapiens, UniProt P20309)
Assay: M3 Receptor Activity Assay: competition binding of [3H]N-methyl scopolamine, SPA format
[1] = competition binding of [3H]NMS at 0.2 nM to CHO-K1 cell membranes expressing human M3 receptor, 16 hours at room temperature, read-out: pIC50 (converted)

human muscarinic acetylcholine M3 receptor (M3-ACh), sequence (P20309 whole entry): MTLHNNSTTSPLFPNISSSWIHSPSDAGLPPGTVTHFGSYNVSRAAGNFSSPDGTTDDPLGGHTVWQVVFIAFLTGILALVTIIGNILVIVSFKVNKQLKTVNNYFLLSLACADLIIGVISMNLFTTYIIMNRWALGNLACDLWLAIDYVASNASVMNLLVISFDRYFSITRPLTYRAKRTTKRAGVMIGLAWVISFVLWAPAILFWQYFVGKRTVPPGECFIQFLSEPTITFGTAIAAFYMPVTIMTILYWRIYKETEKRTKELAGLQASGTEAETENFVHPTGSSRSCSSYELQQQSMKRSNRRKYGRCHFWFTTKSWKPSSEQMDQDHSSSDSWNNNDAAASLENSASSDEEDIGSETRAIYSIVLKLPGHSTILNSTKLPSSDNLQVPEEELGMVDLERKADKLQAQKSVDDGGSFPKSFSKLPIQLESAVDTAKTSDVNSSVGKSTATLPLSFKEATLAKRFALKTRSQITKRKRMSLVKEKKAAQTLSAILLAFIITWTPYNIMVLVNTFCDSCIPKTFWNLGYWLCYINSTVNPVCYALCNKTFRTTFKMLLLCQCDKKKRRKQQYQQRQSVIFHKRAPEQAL
Procedure: The assay was conducted in a final volume of 200 μL, in the presence of 1% (v/v) dimethyl sulphoxide (DMSO). Total binding of [^3H]NMS was determined in the absence of competing compound and non-specific binding of [3H]NMS was determined in the presence of 1 μM atropine. The plates were incubated for 16 hours at room temperature and then read on Wallac Microbeta™ using a normalised ^3H protocol.

SMILES | IC50 [nM] | IC50 [1] [nM]
CC(C(=O)OC1CC[N+](C)(C)CC1)(c1ccccc1)C1CC1 (stereo not drawn) [Example 3, 4-[(2-Cyclopropyl-2-phenylpropanoyl)oxy]-1,1-dimethylpiperidinium iodide] | 0.398 | 
Cc1ccc(C(C)(C(=O)OC2CC[N+](C)(C)CC2)C2CCCC2)s1 (stereo not drawn) [Example 9, 4-{[2-Cyclopentyl-2-(5-methyl-2-thienyl)propanoyl]oxy}-1,1-dimethylpiperidinium iodide] |  | 0.0794
CC(C(=O)OC1CC[N+](C)(C)CC1)(c1ccc(Cl)cc1)C1CCCC1 (stereo not drawn) [Example 19, 4-{[2-(4-Chlorophenyl)-2-cyclopentylpropanoyl]oxy}-1,1-dimethylpiperidinium iodide] |  | 0.2

— patent US20090233965A1, “Alkyl Esters Of Cyclic Amino Alcohols With Muscarinic M3 Receptor Antagonist Activity, Useful For Treating E.G. Chronic Bronchial Obstruction, Asthma And Overactive Bladder” (priority 2006, published 2009)
